Laboratory results published in ChEMBL document CHEMBL5316331, “Modulating Cytotoxicity with Lego-like Chemistry: Upgrading Mitochondriotropic Antioxidants with Prototypical Cationic Carrier Bricks” (J Med Chem, 2023).
Calls of active or inactive are those of the source. The calls are words filed in the database; no cut-off is given here.

How the values were obtained:
[1] = test system: SH-SY5Y; assay: Antioxidant activity against human SH-SY5Y cells assessed as increase in basal ECAR at 10 uM incubated for 24 hrs followed by addition of oligomycin/FCCP/antimycin A /rotenone by Cell Mito stress assay based seahorse XF96 flux analyzer; assay type: functional
[2] = test system: SH-SY5Y; assay: Antioxidant activity against human SH-SY5Y cells assessed as effect on intracellular ATP level at 50 uM incubated for 24 hrs followed by addition of oligomycin/FCCP/antimycin A /rotenone by Cell Mito stress assay based seahorse XF96 flux analyzer; assay type: functional
[3] = Cytotoxicity against human SH-SY5Y cells assessed as cell viability incubated for 24 hrs; assay type: toxicity, cell-based; details: read-out: Activity
[4] = test system: SH-SY5Y; assay: Effect on cell death pathway in human SH-SY5Y cells assessed as decrease in necrotic cells at 10 uM incubated for 24 hrs by Annexin V-FITC/PI staining based microscopy; assay type: functional
[5] = test system: SH-SY5Y; assay: Neuroprotective activity against tBHP-induced human SH-SY5Y cells assessed as increase in cell viability at 50 uM preincubated for 30 mins followed by t-BHP addition at 30 uM and measured after 24 hrs by neutral dye uptake assay relative to control; assay type: functional; details: time 24.5 hrs
[6] = Drug uptake in C57BL/6J mouse liver mitochondria at 5 uM in presence of rotenone by UPLC analysis; assay type: ADME
[7] = Cytotoxicity against human HepG2 cells assessed as cell viability incubated for 24 hrs; assay type: toxicity, cell-based; details: read-out: Activity
[8] = test system: SH-SY5Y; assay: Neuroprotective activity against tBHP-induced human SH-SY5Y cells assessed as increase in cell viability at 10 uM preincubated for 30 mins followed by t-BHP addition and measured after 24 hrs by SRB assay; assay type: functional, cell-based; details: time 24.5 hrs
[9] = test system: SH-SY5Y; assay: Cytotoxicity against human SH-SY5Y cells assessed as increase in cell viability at 10 to 100 uM incubated for 24 hrs; assay type: toxicity, cell-based; details: dose 10-100 µM
[10] = test system: SH-SY5Y; assay: Antioxidant activity against human SH-SY5Y cells assessed as increase in basal respiration at 10 uM incubated for 24 hrs followed by addition of oligomycin/FCCP/antimycin A /rotenone by Cell Mito stress assay based seahorse XF96 flux analyzer; assay type: functional
[11] = test system: SH-SY5Y; assay: Neuroprotective activity against tBHP-induced human SH-SY5Y cells assessed as increase in cell viability at 10 uM preincubated for 30 mins followed by t-BHP addition at 15 uM and measured after 24 hrs by neutral dye uptake assay relative to control; assay type: functional; details: time 24.5 hrs
[12] = test system: SH-SY5Y; assay: Effect on cell death pathway in human SH-SY5Y cells assessed as decrease in early apoptotic cells at 10 uM incubated for 24 hrs by Annexin V-FITC/PI staining based microscopy; assay type: functional
[13] = Dissociation constant, pKa of the compound by UV-vis spectrophotometric analysis; assay type: physicochemical
[14] = test system: SH-SY5Y; assay: Antioxidant activity against human SH-SY5Y cells assessed as increase in basal OCR at 10 uM incubated for 24 hrs followed by addition of oligomycin/FCCP/antimycin A /rotenone by Cell Mito stress assay based seahorse XF96 flux analyzer; assay type: functional
[15] = test system: SH-SY5Y; assay: Effect on cell death pathway in human SH-SY5Y cells assessed as decrease in late apoptotic cells at 50 uM incubated for 24 hrs by Annexin V-FITC/PI staining based microscopy; assay type: functional
[16] = test system: SH-SY5Y; assay: Neuroprotective activity against tBHP-induced human SH-SY5Y cells assessed as increase in cell viability at 50 uM preincubated for 30 mins followed by t-BHP addition and measured after 24 hrs by SRB assay; assay type: functional, cell-based; details: time 24.5 hrs
[17] = test system: SH-SY5Y; assay: Induction of mitochondrial membrane polarization in human SH-SY5Y cells at 10 uM incubated for 24 hrs by JC-1 staining based fluorescence assay; assay type: functional
[18] = test system: SH-SY5Y; assay: Cytotoxicity against human SH-SY5Y cells incubated for 48 hrs; assay type: toxicity, cell-based
[19] = test system: SH-SY5Y; assay: Antioxidant activity against human SH-SY5Y cells assessed as increase in spare respiratory capacity at 10 uM incubated for 24 hrs followed by addition of oligomycin/FCCP/antimycin A /rotenone by Cell Mito stress assay based seahorse XF96 flux analyzer; assay type: functional
[20] = test system: SH-SY5Y; assay: Effect on cell death pathway in human SH-SY5Y cells assessed as decrease in early apoptotic cells at 50 uM incubated for 24 hrs by Annexin V-FITC/PI staining based microscopy; assay type: functional
[21] = Drug uptake in C57BL/6J mouse liver mitochondria at 5 uM in presence of succinate by UPLC analysis; assay type: ADME
[22] = test system: SH-SY5Y; assay: Effect on cell death pathway in human SH-SY5Y cells assessed as decrease in late apoptotic cells at 10 uM incubated for 24 hrs by Annexin V-FITC/PI staining based microscopy; assay type: functional
[23] = test system: HepG2; assay: Cytotoxicity against human HepG2 cells assessed as increase in cell viability at 10 to 100 uM incubated for 24 hrs; assay type: toxicity, cell-based; details: hepg2, 24 h, dose 10-100 µM
[24] = test system: SH-SY5Y; assay: Neuroprotective activity against tBHP-induced human SH-SY5Y cells assessed as increase in cell viability at 50 uM preincubated for 30 mins followed by t-BHP addition at 15 uM and measured after 24 hrs by neutral dye uptake assay relative to control; assay type: functional; details: time 24.5 hrs
[25] = test system: SH-SY5Y; assay: Effect on cell death pathway in human SH-SY5Y cells assessed as decrease in necrotic cells at 50 uM incubated for 24 hrs by Annexin V-FITC/PI staining based microscopy; assay type: functional
[26] = test system: SH-SY5Y; assay: Induction of mitochondrial membrane polarization in human SH-SY5Y cells at 50 uM incubated for 24 hrs by JC-1 staining based fluorescence assay; assay type: functional
[27] = test system: SH-SY5Y; assay: Neuroprotective activity against H2O2-induced human SH-SY5Y cells assessed as increase in cell viability at 10 uM preincubated for 30 mins followed by H2O2 addition and measured after 24 hrs by SRB assay; assay type: functional, cell-based; details: time 24.5 hrs
[28] = test system: SH-SY5Y; assay: Neuroprotective activity against H2O2-induced human SH-SY5Y cells assessed as increase in cell viability at 50 uM preincubated for 30 mins followed by H2O2 addition and measured after 24 hrs by SRB assay; assay type: functional, cell-based; details: time 24.5 hrs
[29] = test system: SH-SY5Y; assay: Antioxidant activity against human SH-SY5Y cells assessed as increase in maximal respiration at 10 uM incubated for 24 hrs followed by addition of oligomycin/FCCP/antimycin A /rotenone by Cell Mito stress assay based seahorse XF96 flux analyzer; assay type: functional
[30] = Drug uptake in C57BL/6J mouse liver mitochondria at 5 uM in presence of FCCP by UPLC analysis; assay type: ADME
[31] = test system: SH-SY5Y; assay: Antioxidant activity against human SH-SY5Y cells assessed as increase in ATP production-linked respiration at 10 uM incubated for 24 hrs followed by addition of oligomycin/FCCP/antimycin A /rotenone by Cell Mito stress assay based seahorse XF96 flux analyzer; assay type: functional
[32] = test system: SH-SY5Y; assay: Effect on cell mitochondrial mass in human SH-SY5Y cells assessed as reduction on mitochondrial mass at 50 uM incubated for 24 hrs by mito-tracker green dye based flow cytometry; assay type: functional; parameters: scale not given: the % may be the effect or the level left

Question: For `CS(=O)(=O)[O-].O=C(/C=C/c1ccc(O)c(O)c1)NCCCCCCCCCC[n+]1ccc2ccccc2c1`, which Activity [1] is on record?
Answer: Its Activity is “Active”.

Question: And the Activity [2]?
Answer: The Activity was 87.9%.

Question: What about the viability at 24 h [3] of the same compound?
Answer: The viability at 24 h was ≥ 85%.

Question: What about the Activity [4] of the same compound?
Answer: The Activity was “Active”.

Question: What about the Activity [5] of the same compound?
Answer: The Activity was 59.6%.

Question: And the Drug uptake [6]?
Answer: Its Drug uptake is “Not Active”.

Question: And the viability at 24 h [7]?
Answer: Its viability at 24 h is ≥ 85%.

Question: And the Activity [8]?
Answer: Its Activity is “Active”.

Question: And the Activity [9]?
Answer: The Activity was “Non-Toxic”.

Question: What about the Activity [10] of the same compound?
Answer: The Activity was “Active”.

Question: What about the Activity [11] of the same compound?
Answer: The Activity was 85.6%.

Question: And the Activity [12]?
Answer: The Activity was “Active”.

Question: And the pKa [13]?
Answer: Its pKa is 8.45.

Question: And the Activity [14]?
Answer: The Activity was “Active”.

Question: And the Activity [15]?
Answer: The Activity was “Active”.

Question: And the Activity [16]?
Answer: The Activity was “Active”.

Question: What about the Activity [17] of the same compound?
Answer: The Activity was “inactive”.

Question: What about the Activity [18] of the same compound?
Answer: Its Activity is “Non-Toxic”.

Question: What about the Activity [19] of the same compound?
Answer: The Activity was “Active”.

Question: And the Activity [20]?
Answer: Its Activity is “Active”.

Question: And the Drug uptake [21]?
Answer: Its Drug uptake is ~ 25%.

Question: And the Activity [22]?
Answer: The Activity was “Active”.

Question: What about the Activity [23] of the same compound?
Answer: Its Activity is “Non-Toxic”.

Question: And the Activity [24]?
Answer: The Activity was 89.7%.

Question: And the Activity [25]?
Answer: The Activity was “Active”.

Question: And the Activity [26]?
Answer: Its Activity is 81.5%.

Question: What about the Activity [27] of the same compound?
Answer: The Activity was “inactive”.

Question: And the Activity [28]?
Answer: Its Activity is “inactive”.

Question: What about the Activity [29] of the same compound?
Answer: Its Activity is “Active”.

Question: What about the Drug uptake [30] of the same compound?
Answer: Its Drug uptake is “Active”.

Question: What about the Activity [31] of the same compound?
Answer: Its Activity is “Active”.

Question: And the Activity [32]?
Answer: The Activity was 86.8%.
